In patent publication US11505525B2, “Branched discrete PEG constructs” (Quanta BioDesign, Ltd., priority 2011, dated 2022):

Columns and labels:
[1] = system: GLP-1 receptor; settings: cited from earlier work
[2] = system: implanted tumors; test: Fused CT/PET imaging of tumor-bearing nude mice with 124I-labelled CC49 Fab′ conjugates; format: in vivo
Description: Fused PET/CT images of mice were taken of different antibody conjugates to determine their ability to localize implanted tumors (see Examples below). In particular, CC49 Fab′-S-NEM control was compared to CC49 Fab′-dPEG12-Tris(dPEG24 carboxyl)3, the CC49 Fab′ MoAb modified with one of the disclosed branched dPEGs containing terminal carboxyl groups.
• 1. sterilized, de-pyrogenated glass reaction vessel coated with IODO-GEN™ (SOP 310.0) (5-10 ml serum vials or 13 mm×100 mm test tubes) • 2. sterile, pyrogen-free phosphate buffer, 0.1 M. pH 7.2 • 3. sterile, pyrogen-free phosphate buffered saline • 4. 1 Sephadex G-25M (PD-10 disposable) column with tip • 5. Iodine-124 medium concentration, high activity, sodium iodide for protein iodination in pH=9.5, concentration—100 mCi/ml (IBA Molecular, Dulles VA) • 6. protein to be radiolabeled • 7. 10 sterilized, de-pyrogenated glass test tubes—12×75 mm • 8. 1 sterile Millex-GV 0.22 micron, 13 mm low protein binding filter unit (Millipore—cat. no: SLGV0130S) • 9. microliter pipettes (Eppendorf) • 10. sterilized plastic tips for microliter pipette • 11. parafilm—2 cm.×2 cm. • 12. close calibrator • 13. fume hood • 14. dry and wet radioactive waste containers • 15. disposable gloves • 16. lead shielding and lead containers for reaction vessel and test tubes • 17.2-5 ml. sterile, pyrogen-free syringes with needles • 18.1-3.5 in. spinal needle. Procedure • (Note: the specific activity desired will determine the quantities of protein and Iodine-124 used below.) • I. Place the desired amount of protein into the IODO-GEN™ reaction vessel. • 2. Add the desired amount of iodine-124 into the IODO-GEN™ reaction vessel. • 3. Add 50 μl of 0.1M, 7.2 pH phosphate buffer solution to reaction vessel. • 4. Cover the reaction vessel with parafilm. • 5. Incubate reaction vessel for 20 minutes with occasional swirling. • 6. Place reaction vessel into dose calibrator to determine radioactivity added. • 7. Stop reaction by removing reaction mixture from reaction vessel and placing mixture onto gel bed of Sephadex G-25M column (this separates unbound Iodine-124). • 8. Allow mixture to elute through column. (Note: the iodinated protein is collected from the column after the void volume has been eluted—approximately 2 ml). • 9. Place 1 ml phosphate buffered saline onto gel bed of Sephadex G-25M column and allow to elute through column. • 10. Place 4 ml phosphate buffered saline onto gel bed of Sephadex G-25M column and allow to elute through column. (Note: begin to collect Iodinated protein if you have not done so already). • 11. Collect fractions of 10 drops of eluted iodinated protein—total of 10 fractions. • 12. Assay the 10 fractions using the dose calibrator. • 13. Collect the fractions, which have the highest radioactivity and pool them together in a sterile, pyrogen-free syringe. • 14. Assay syringe of the collected iodinated fractions. • 15. Filter radiolabeled protein using Millex-GV 0.22 micron low protein binding filter unit into a sterile pyrogen-free syringe. • 16. Assay syringe of the filtered radiolabeled protein. • 17. Remove a sample for quality assurance procedures. Description of Animals • a. Female nude mice background, 4-5 weeks in age, were used in this project. For every 7 animals injected with tumors, 4 will actually show tumors in the useful size range. • b. The nude mice will receive 6×10^6 cells subcutaneously in 0.1 mL volumes in order to initiate tumors. • c. Nude mice are received on a routine basis from commercial sources. The mouse colony is routinely surveyed for adventitious agents by serological and histopathological procedures. Upon arrival, the mice are conditioned for up to one week and then moved into an experimental protocol. • d. The anesthetized mice are injected subcutaneously or intradermally into the flank area. For this injection, the mouse is held by a fold in the skin at the back and a 25G needle inserted through the skin. […]

[3] = system: TAG-72; test: Competition affinity assay of CC49-Fab′-branched dPEGs; format: binding; settings: Fab′-NEM defined as 1.0; single aliquots
Description: A competition assay was run with a series of CC49-Fab′-dPEGs. In this run, single aliquots of each compound were assayed. The affinity constant of Fab′-NEM is defined as 1.0. From the data, it is that clear that the Relative Affinity Constant, which is a measure of how well the Fab′ binds to its molecular target, is minimally impacted by conjugation to branched dPEG products.
A competition assay was run with a series of CC49-Fab′-branched dPEGs. In this run, single aliquots of each compound were assayed. The affinity constant of Fab′-NEM is defined as 1.0, and the binding constants of the branched dPEG conjugates are as follows: […]

[4] = mouse, in vivo
From the text: In a different study, PK data was taken on normal athymic mice injected with: mCC49 Fab′-dPEG12-Tris(dPEG12-Tris(m-dPEG11)3)3, mCC49 Fab′-dPEG12-Tris(dPEG24-acid)3, mCC49 Fab′-dPEG12-Tris(m-dPEG24)3, and mCC49 Fab′-dPEG12-Tris(dPEG12-acid)3.
PK data was taken with additional normal female athymic mice as follows: […]

For “20 kD polymer PEG attached with two Exendin-4 molecules: "the 20 kD polymer PEG attached with two Exendin-4 molecules"; binding reduced approximately 67 times by the "shielding effect" of the linear PEG”, the “reduction of binding relative to bis-Exendin-4 without the polymeric PEG” value [1] is given as “approximately 67 times”.

For “CC49 Fab′-S-MAL-dPEG12-Tris(m-dPEG24)3 [CC49 Fab′-dPEG12-Tris(m-dPEG24)3]”, the “fused CT/PET image: tumors and background” value (from here on “fused CT/PET image”) ([2]; 24 hours post injection) was “little background” and the “fused CT/PET image” value ([2]; 72 hours post injection) was “little background”.

In the case of “Lys^27 Exendin-4 linear polymeric PEG 2 kD: "the Lys^27 in the Exendin-4 is modified with linear polymeric PEGs of MW, 1, 2 and 5 kD"; approximately 12 times lower binding”, the “binding of Lys^27-PEGylated Exendin-4, times lower” value (“binding … times lower” for short) [1] is given as “approximately 12 times”.

With “CC49 Fab′-S-MAL-dPEG12-Tris(-dPEG12-CO2H)3 [CC49 Fab′-dPEG12-Tris(dPEG12 acid)3 (B)]” the “Relative Affinity Constant (Ka)” value [3] was 0.3.

With “CC49 Fab′-S-MAL-dPEG12-Tris(-dPEG24-CO2H)3 [CC49 Fab′-dPEG12-Tris(dPEG24 acid)3]” the “fused CT/PET image” value ([2]; 5 hours post injection) was “good imaging of the tumors with some background evident”, the “fused CT/PET image” value ([2]; 24 hours post injection) was “the tumors were well imaged with continuing diminution of background” and the “fused CT/PET image” value ([2]; 48 hours post injection) was “virtually no background is evident”. The “fused CT/PET image” value ([2]; 72 hours post injection) was “virtually no background is evident”.

In the case of “Lys^27 Exendin-4 linear polymeric PEG 1 kD: "the Lys^27 in the Exendin-4 is modified with linear polymeric PEGs of MW, 1, 2 and 5 kD"; binding almost the same for 1 kD”, the “binding … times lower” value [1] is given as “almost the same”.

For “Lys^27 Exendin-4 linear polymeric PEG 0.5 kD: "the Lys^27 in the Exendin-4 is modified with linear polymeric PEGs of MW, 1, 2 and 5 kD"; approximately 37 times lower binding, printed "0.5 kD"”, the “binding … times lower” value [1] is given as about 37 times.

For “two Exendin-4 molecules: "two Exendin-4 molecules in a very congested branching format"; "the bis-Exendin-4 without the large polymeric PEG"”, the “increase in the binding” value ([1]; two Exendin-4 molecules in branching format) is listed as 3.5 times.

In the case of “CC49 Fab′-S-MAL-dPEG12-Tris(-dPEG12-Tris(m-dPEG11)3)3”, the “Relative Affinity Constant (Ka)” value [3] is reported as 0.4.

For “m CC49 Fab′-dPEG12-Tris(dPEG12-Tris(m-dPEG11)3)3 [Fab-dPEG-D]”, the clearance over time [4] was “least rapid clearance”.
